Source: ChEMBL document CHEMBL1201862, “PubChem BioAssay data set” (2004)
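Test compounds were applied to cells in 96-well plates for 48 hours at 5 doses. GI50 is the concentration that inhibits growth by half.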 Calls of active or inactive are those of the source. Rule as the data show it: active = GI50 up to about 1.1 µM and inactive = higher.

Legend:
Assay in all cases: NCI anticancer screen, dose series, 48 h
[1] = tested on: U-251
[2] = tested on: 786-0
[3] = tested on: XF498
[4] = tested on: ACHN
[5] = tested on: DMS-273
[6] = tested on: NCI-H460
[7] = tested on: SW-620
[8] = tested on: SF-295
[9] = tested on: HCT-15
[10] = tested on: RXF 393
[11] = tested on: NCI-H522
[12] = tested on: HL-60
[13] = tested on: SN12C
[14] = tested on: KM-20L2
[15] = tested on: COLO 205
[16] = tested on: Malme-3M
[17] = tested on: M19-MEL
[18] = tested on: A549
[19] = tested on: IGROV-1
[20] = tested on: EKVX
[21] = tested on: HOP-18
[22] = tested on: NCI-H226
[23] = tested on: SK-MEL-2
[24] = tested on: SK-MEL-28
[25] = tested on: HT-29
[26] = tested on: TK-10
[27] = tested on: DMS-114
[28] = tested on: KM12
[29] = tested on: M14
[30] = tested on: NCI-H23
[31] = tested on: DLD-1
[32] = tested on: UO-31
[33] = tested on: SR
[34] = tested on: K562
[35] = tested on: RPMI-8226
[36] = tested on: OVCAR-5
[37] = tested on: CCRF-CEM
[38] = tested on: HOP-62
[39] = tested on: HCC 2998
[40] = tested on: A498
[41] = tested on: HOP-92
[42] = tested on: SF-268
[43] = tested on: MOLT-4
[44] = tested on: UACC-257
[45] = tested on: OVCAR-8
[46] = tested on: SF-539
[47] = tested on: SNB-78
[48] = tested on: LXFL 529
[49] = tested on: SNB-19
[50] = tested on: UACC-62
[51] = tested on: CAKI-1
[52] = tested on: SNB-75
[53] = tested on: OVCAR-4
[54] = tested on: HCT-116
[55] = tested on: SK-MEL-5
[56] = tested on: SK-OV-3
[57] = tested on: LOX IMVI
[58] = tested on: OVCAR-3
[59] = tested on: RXF 631

C/C(CC(=O)Nc1ccc([N+](=O)[O-])cc1)=N\NC(N)=O
GI50 [1]: > 100 µM (inactive) | GI50 [2]: > 100 µM (inactive) | GI50 [3]: > 100 µM (inactive) | GI50 [4]: > 100 µM (inactive) | GI50 [5]: > 66.5 µM (inactive) | GI50 [6]: > 100 µM (inactive) | GI50 [7]: > 100 µM (inactive) | GI50 [8]: > 100 µM (inactive) | GI50 [9]: 27 µM | GI50 [10]: > 100 µM (inactive) | GI50 [11]: > 81.7 µM (inactive) | GI50 [12]: > 100 µM (inactive) | GI50 [13]: > 100 µM (inactive) | GI50 [14]: > 64.9 µM (inactive) | GI50 [15]: > 55.6 µM (inactive) | GI50 [16]: > 100 µM (inactive) | GI50 [17]: > 100 µM (inactive) | GI50 [18]: > 100 µM (inactive) | GI50 [19]: > 100 µM (inactive) | GI50 [20]: > 100 µM (inactive) | GI50 [21]: > 100 µM (inactive) | GI50 [22]: > 100 µM (inactive) | GI50 [23]: > 100 µM (inactive) | GI50 [24]: > 100 µM (inactive) | GI50 [25]: > 100 µM (inactive) | GI50 [26]: > 100 µM (inactive) | GI50 [27]: > 45.8 µM (inactive) | GI50 [28]: > 100 µM (inactive) | GI50 [29]: > 76.6 µM (inactive) | GI50 [30]: > 100 µM (inactive) | GI50 [31]: > 77.8 µM (inactive) | GI50 [32]: > 100 µM (inactive) | GI50 [33]: 24.4 µM (inactive) | GI50 [34]: > 70.8 µM (inactive) | GI50 [35]: > 46.1 µM (inactive) | GI50 [36]: > 100 µM (inactive) | GI50 [37]: > 44.6 µM (inactive) | GI50 [38]: > 100 µM (inactive) | GI50 [39]: > 100 µM (inactive) | GI50 [40]: > 100 µM (inactive) | GI50 [41]: > 100 µM (inactive) | GI50 [42]: 98.2 µM (inactive) | GI50 [43]: > 100 µM (inactive) | GI50 [44]: > 100 µM (inactive) | GI50 [45]: > 44.4 µM (inactive) | GI50 [46]: > 100 µM (inactive) | GI50 [47]: > 100 µM (inactive) | GI50 [48]: > 80.2 µM (inactive) | GI50 [49]: > 100 µM (inactive) | GI50 [50]: > 71.3 µM (inactive) | GI50 [51]: > 100 µM (inactive) | GI50 [52]: > 100 µM (inactive) | GI50 [53]: > 100 µM (inactive) | GI50 [54]: > 57.8 µM (inactive) | GI50 [55]: > 68.7 µM (inactive) | GI50 [56]: > 100 µM (inactive) | GI50 [57]: > 64.7 µM (inactive) | GI50 [58]: > 100 µM (inactive)

Cc1cccc(C)c1NC(=O)CCc1nnc2s/c(=C\c3ccc(Cl)cc3)c(=O)n12
GI50 [1]: 83.9 µM (inactive) | GI50 [2]: 44 µM (inactive) | GI50 [3]: 52.8 µM (inactive) | GI50 [4]: > 100 µM (inactive) | GI50 [5]: 54.6 µM (inactive) | GI50 [6]: > 100 µM (inactive) | GI50 [7]: 21.2 µM (inactive) | GI50 [8]: 70.6 µM (inactive) | GI50 [9]: 19.1 µM | GI50 [10]: 36.8 µM (inactive) | GI50 [11]: > 100 µM (inactive) | GI50 [12]: > 100 µM (inactive) | GI50 [13]: > 100 µM (inactive) | GI50 [14]: > 100 µM (inactive) | GI50 [15]: 92 µM (inactive) | GI50 [16]: > 100 µM (inactive) | GI50 [17]: > 100 µM (inactive) | GI50 [18]: > 100 µM (inactive) | GI50 [19]: 72.1 µM (inactive) | GI50 [20]: > 100 µM (inactive) | GI50 [21]: > 100 µM (inactive) | GI50 [22]: 97.5 µM (inactive) | GI50 [23]: 60.5 µM (inactive) | GI50 [24]: > 100 µM (inactive) | GI50 [25]: > 100 µM (inactive) | GI50 [26]: 42.3 µM (inactive) | GI50 [27]: > 100 µM (inactive) | GI50 [28]: > 100 µM (inactive) | GI50 [29]: > 100 µM (inactive) | GI50 [30]: > 100 µM (inactive) | GI50 [31]: 37.8 µM (inactive) | GI50 [32]: > 100 µM (inactive) | GI50 [33]: > 100 µM (inactive) | GI50 [34]: > 100 µM (inactive) | GI50 [35]: 61 µM (inactive) | GI50 [36]: > 100 µM (inactive) | GI50 [37]: > 100 µM (inactive) | GI50 [38]: 22 µM (inactive) | GI50 [39]: > 100 µM (inactive) | GI50 [40]: > 100 µM (inactive) | GI50 [41]: > 100 µM (inactive) | GI50 [42]: > 100 µM (inactive) | GI50 [43]: > 100 µM (inactive) | GI50 [44]: > 100 µM (inactive) | GI50 [45]: > 100 µM (inactive) | GI50 [46]: 40.6 µM (inactive) | GI50 [47]: 70 µM (inactive) | GI50 [48]: 75.7 µM (inactive) | GI50 [49]: > 100 µM (inactive) | GI50 [50]: > 100 µM (inactive) | GI50 [51]: > 100 µM (inactive) | GI50 [52]: 73.8 µM (inactive) | GI50 [53]: > 100 µM (inactive) | GI50 [54]: 25.2 µM (inactive) | GI50 [55]: > 100 µM (inactive) | GI50 [56]: 31.8 µM (inactive) | GI50 [57]: > 100 µM (inactive) | GI50 [58]: > 100 µM (inactive)

CCCCCCCCCCCCSC(=S)c1c(C)[nH]n(CCCCCCCCCCCC)c1=O
GI50 [1]: > 100 µM (inactive) | GI50 [59]: > 100 µM (inactive) | GI50 [4]: 55.2 µM (inactive) | GI50 [6]: 50.5 µM (inactive) | GI50 [7]: 77.6 µM (inactive) | GI50 [8]: > 100 µM (inactive) | GI50 [9]: 65.3 µM | GI50 [11]: 99.5 µM (inactive) | GI50 [12]: 66.7 µM (inactive) | GI50 [13]: 77.1 µM (inactive) | GI50 [14]: 73.1 µM (inactive) | GI50 [15]: > 100 µM (inactive) | GI50 [16]: 34.6 µM (inactive) | GI50 [17]: 31.6 µM (inactive) | GI50 [18]: 40.5 µM (inactive) | GI50 [19]: > 100 µM (inactive) | GI50 [20]: 27.5 µM (inactive) | GI50 [21]: 65 µM (inactive) | GI50 [22]: > 100 µM (inactive) | GI50 [23]: 78.2 µM (inactive) | GI50 [24]: > 100 µM (inactive) | GI50 [25]: 74.1 µM (inactive) | GI50 [27]: 46.1 µM (inactive) | GI50 [28]: > 100 µM (inactive) | GI50 [29]: > 10 µM (inactive) | GI50 [30]: > 100 µM (inactive) | GI50 [31]: > 100 µM (inactive) | GI50 [32]: 88.1 µM (inactive) | GI50 [33]: > 100 µM (inactive) | GI50 [34]: > 100 µM (inactive) | GI50 [35]: 94.8 µM (inactive) | GI50 [36]: > 100 µM (inactive) | GI50 [37]: 48.4 µM (inactive) | GI50 [38]: > 100 µM (inactive) | GI50 [39]: > 100 µM (inactive) | GI50 [40]: > 100 µM (inactive) | GI50 [42]: 48.9 µM (inactive) | GI50 [43]: > 100 µM (inactive) | GI50 [44]: > 100 µM (inactive) | GI50 [45]: 91.2 µM (inactive) | GI50 [46]: > 100 µM (inactive) | GI50 [47]: > 100 µM (inactive) | GI50 [48]: 67.9 µM (inactive) | GI50 [49]: > 100 µM (inactive) | GI50 [50]: > 100 µM (inactive) | GI50 [51]: > 100 µM (inactive) | GI50 [52]: > 100 µM (inactive) | GI50 [53]: > 100 µM (inactive) | GI50 [54]: 43.6 µM (inactive) | GI50 [55]: > 100 µM (inactive) | GI50 [56]: > 100 µM (inactive) | GI50 [57]: > 100 µM (inactive) | GI50 [58]: > 100 µM (inactive)
